Reference: paper PMC5011342, “A high throughput drug screening assay to identify compounds that promote oligodendrocyte differentiation using acutely dissociated and purified oligodendrocyte precursor cells” (BMC Research Notes, 2016)
Where two headings read alike, the source gives them in different places.

How the values were obtained:
[1] = test system: acutely dissociated and purified rat OPCs; test: Acute OL differentiation assay (MBP expression/cell, immunofluorescent image quantification); format: cell-based; settings: sheet "All OLga data"; for activation at 2 µM / activation at 10 µM / activation at 0.4 µM / activation at 0.08 µM: Rattus norvegicus
How it was run: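 Oligodendrocyte precursor cells were enriched from P6-P7 Sprague–Dawley rat brains by immunopanning (RAN-2 and GalC depletion, O4 selection), plated at 5000 cells/well in serum-free, mitogen-free differentiation media on PDL/laminin 96-well view plates, centrifuged at 200×g, and pre-incubated 1–2 h before test compounds were added in quadruplicate. On DIV4, cells were fixed, stained for MBP and DAPI, imaged automatically, and MBP expression per cell was quantified.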

expanded OPCs = test: cells; settings: for viability at 0.1 µM / viability at 1 µM / viability at 10 µM: Rattus norvegicus, 72 h
How it was run: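 Expanded OPCs seeded at 10,000 cells/well in differentiation media, then exposed to NCC library compounds at 10, 1 and 0.1 µM (quadruplicate, 0.1% DMSO) for three days. Viability read as alamarBlue fluorescence (560/590 nm) after 4 h at 37 °C; tunicamycin 5 ng/ml served as toxicity control.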

[2] = test compound at 2 uM, NCC library screen, relative to quetiapine, read-out: 2 uM (% Quet)
[3] = test compound at 10 uM, NCC library screen, relative to quetiapine, read-out: 10 uM (% Quet)
[4] = alamarBlue viability of expanded OPCs, compound at 0.1 µM, relative to DMSO control
[5] = alamarBlue viability of expanded OPCs, compound at 1 µM, relative to DMSO control
[6] = alamarBlue viability of expanded OPCs, compound at 10 µM, relative to DMSO control
[7] = 2 uM test compound, relative to quetiapine, read-out: OL differentiation, 2 uM (% Quet)
[8] = 10 uM test compound, relative to quetiapine, read-out: OL differentiation, 10 uM (% Quet)
[9] = read-out: 0.1 µM (% DMSO), alamarBlue viability of expanded OPCs, compound at 0.1 µM, sheet All Tox data
[10] = read-out: 1 µM (% DMSO), alamarBlue viability of expanded OPCs, compound at 1 µM, sheet All Tox data
[11] = read-out: 10 µM (% DMSO), alamarBlue viability of expanded OPCs, compound at 10 µM, sheet All Tox data
[12] = test compound at 2 uM, MBP expression relative to quetiapine, NCC library screen, read-out: 2 uM (% Quet)
[13] = test compound at 10 uM, MBP expression relative to quetiapine, NCC library screen, read-out: 10 uM (% Quet)
[14] = 0.4 uM test compound, relative to quetiapine, read-out: OL differentiation, 0.4 uM (% Quet)
[15] = read-out: 0.1 µM (% DMSO), alamarBlue viability, NCC library compound at 0.1 µM, sheet "All Tox data"
[16] = read-out: 1 µM (% DMSO), alamarBlue viability, NCC library compound at 1 µM, sheet "All Tox data"
[17] = read-out: 10 µM (% DMSO), alamarBlue viability, NCC library compound at 10 µM, sheet "All Tox data"
[18] = test compound at 2 uM, NCC library screen, relative to quetiapine
[19] = alamarBlue viability, NCC library compound at 0.1 µM, sheet "All Tox data"
[20] = alamarBlue viability, NCC library compound at 1 µM, sheet "All Tox data"
[21] = alamarBlue viability, NCC library compound at 10 µM, sheet "All Tox data"
[22] = test compound at 0.4 uM, NCC library screen, relative to quetiapine, read-out: 0.4 uM (% Quet)

| Compound | activation at 2 µM [1, 2] | activation at 2 µM [1, 7] | activation at 10 µM [1, 8] | viability at 0.1 µM (expanded OPCs; [9]) | viability at 1 µM (expanded OPCs; [10]) | viability at 10 µM (expanded OPCs; [11]) | viability at 0.1 µM (expanded OPCs; [15]) | viability at 1 µM (expanded OPCs; [16]) | viability at 10 µM (expanded OPCs; [17]) | also measured |
| --- | --- | --- | --- | --- | --- | --- | --- | --- | --- | --- |
| CC(C)NCC(O)c1ccc(O)c(O)c1 (stereo not shown) [Isoproterenol] | -19.5% | – | – | – | – | – | – | – | – | activation at 10 µM [1, 3]: -148%; 0.1 µM (% DMSO) (expanded OPCs; [4]): 95.1 % DMSO; 1 µM (% DMSO) (expanded OPCs; [5]): 94.6 % DMSO; 10 µM (% DMSO) (expanded OPCs; [6]): 67.7 % DMSO |
| O=c1c(O[C@@H]2O[C@H](CO)[C@@H](O)[C@H](O)[C@H]2O)c(-c2ccc(O)c(O)c2)oc2cc(O)cc(O)c12 [Isoquercitrin] | – | 12.9% | 8.7% | 85.5% | 92.9% | 101% | – | – | – | – |
| CC1=C(/C=C/C(C)=C/C=C/C(C)=C\C(=O)O)C(C)(C)CCC1 [Isotretinoin] | – | – | – | – | – | – | – | – | – | activation at 2 µM [1, 12]: -19.2%; activation at 10 µM [1, 13]: -6.2%; 0.1 µM (% DMSO) (expanded OPCs; [4]): 104.5 % DMSO; 1 µM (% DMSO) (expanded OPCs; [5]): 112.6 % DMSO; 10 µM (% DMSO) (expanded OPCs; [6]): 136.3 % DMSO |
| CC(COc1ccccc1)NC(C)C(O)c1ccc(O)cc1 (stereo not shown) [Isoxsuprine] | 13.2% | – | – | – | – | – | – | – | – | activation at 10 µM [1, 3]: 2.2%; 0.1 µM (% DMSO) (expanded OPCs; [4]): 97.2 % DMSO; 1 µM (% DMSO) (expanded OPCs; [5]): 91.9 % DMSO; 10 µM (% DMSO) (expanded OPCs; [6]): 60.9 % DMSO |
| COC(=O)C1=C(C)NC(C)=C(C(=O)OC(C)C)C1c1cccc2nonc12 (stereo not shown) [Isradipine] | – | -6.1% | – | – | – | – | 89.4% | 80.5% | 45.6% | activation at 0.4 µM [1, 14]: -7.2% |
| O=C(O)C[C@H](O)C[C@H](O)/C=C/c1c(C2CC2)nc2ccccc2c1-c1ccc(F)cc1 [Itavastain] | – | – | – | – | – | – | – | – | – | 0.4 uM (% Quet) ([1]; test compound at 0.4 uM, NCC library screen, relative to quetiapine): -60.9 % Quet; 2 uM (% Quet) [1, 18]: -74.4 % Quet; 0.1 µM (% DMSO) (expanded OPCs; [19]): 114.3 % DMSO; 1 µM (% DMSO) (expanded OPCs; [20]): 70.7 % DMSO; 10 µM (% DMSO) (expanded OPCs; [21]): 19.8 % DMSO |
| COc1ccc(C(=O)NCc2ccc(OCCN(C)C)cc2)cc1OC [Itopride] | – | -2.3% | 2% | – | – | – | 112% | 97.5% | 87.1% | – |
| CCC(C)n1ncn(-c2ccc(N3CCN(c4ccc(OCC5COC(Cn6cncn6)(c6ccc(Cl)cc6Cl)O5)cc4)CC3)cc2)c1=O (stereo not shown) [Itraconazole] | – | – | – | 86.1% | 29.2% | 26.2% | – | – | – | activation at 0.08 µM ([1]; 0.08 uM test compound, relative to quetiapine, read-out: OL differentiation, 0.08 uM (% Quet)): 2.8%; activation at 0.4 µM [1, 14]: -174% |
| CN(CCO)CC(O)Cn1cnc2c1c(=O)n(C)c(=O)n2C (stereo not shown) [Jupal] | – | – | – | – | – | – | – | – | – | 2 uM (% Quet) [1, 18]: 0.8 % Quet; 10 uM (% Quet) ([1]; test compound at 10 uM, NCC library screen, relative to quetiapine): 6.5 % Quet; 0.1 µM (% DMSO) (expanded OPCs; [19]): 92.2 % DMSO; 1 µM (% DMSO) (expanded OPCs; [20]): 91.0 % DMSO; 10 µM (% DMSO) (expanded OPCs; [21]): 92.4 % DMSO |
| CC(=O)N1CCN(c2ccc(OCC3COC(Cn4ccnc4)(c4ccc(Cl)cc4Cl)O3)cc2)CC1 (stereo not shown) [Ketoconazole] | – | 16.5% | -67.7% | 98.1% | 126% | 109% | – | – | – | – |
| CC(C(=O)O)c1cccc(C(=O)c2ccccc2)c1 (stereo not shown) [Ketoprofen] | 0.75% | – | – | – | – | – | – | – | – | activation at 10 µM [1, 3]: -29.2%; 0.1 µM (% DMSO) (expanded OPCs; [4]): 90.4 % DMSO; 1 µM (% DMSO) (expanded OPCs; [5]): 89.7 % DMSO; 10 µM (% DMSO) (expanded OPCs; [6]): 95.0 % DMSO |
| O=C(c1ccccc1)c1ccc2n1CCC2C(=O)O (stereo not shown) [Ketorolac] | 16.3% | – | – | – | – | – | 97.7% | 102% | 103% | activation at 10 µM [1, 3]: -1.3% |
| CN1CCC(=C2c3ccccc3CC(=O)c3sccc32)CC1 [Ketotifen] | 0.04% | – | – | – | – | – | 85.1% | 72.7% | 36.9% | activation at 0.4 µM [1, 22]: -11.2% |
| [H]/N=C(/NC)NCCC[C@H](N)C(=O)O [L-NMMA] | – | 3% | 7.7% | 84.1% | 92.4% | 93% | – | – | – | – |
| CCCc1c(OCCCCc2nnn[nH]2)ccc(C(C)=O)c1O [LY 171883] | – | -33.3% | -5.4% | 79.7% | 81.3% | 86.1% | – | – | – | – |
| CC(CCc1ccccc1)NCC(O)c1ccc(O)c(C(N)=O)c1 (stereo not shown) [Labetalol] | -15.3% | – | – | – | – | – | 92.7% | 79.2% | 47.3% | activation at 0.4 µM [1, 22]: -5.2% |
| CCOC(=O)C1=C(C)NC(C)=C(C(=O)OCC)C1c1ccccc1/C=C/C(=O)OC(C)(C)C [Lacidipine] | – | – | – | – | – | – | 64.4% | 55.3% | 8.7% | activation at 0.08 µM ([1]; test compound at 0.08 uM, NCC library screen, relative to quetiapine, read-out: 0.08 uM (% Quet)): -1.1%; activation at 0.4 µM [1, 22]: -11.2% |
| Nc1ccn([C@@H]2CS[C@H](CO)O2)c(=O)n1 [Lamivudine] | – | -2.4% | -27.9% | 87.3% | 96% | 113% | – | – | – | activation at 2 µM [1, 12]: 2.9%; activation at 10 µM [1, 13]: -9.8%; 0.1 µM (% DMSO) (expanded OPCs; [4]): 94.3 % DMSO; 1 µM (% DMSO) (expanded OPCs; [5]): 88.1 % DMSO; 10 µM (% DMSO) (expanded OPCs; [6]): 79.4 % DMSO |
| Nc1nnc(-c2cccc(Cl)c2Cl)c(N)n1 [Lamotrigine] | – | -14.6% | -8.7% | 94.8% | 104% | 99.5% | – | – | – | – |
| Cc1c(OCC(F)(F)F)ccnc1C[S+]([O-])c1nc2ccccc2[nH]1 (stereo not shown) [Lansoprazole] | -3.1% | – | – | – | – | – | 94.2% | 86.3% | 99.9% | activation at 10 µM [1, 3]: -72% |
| CC(C)OC(=O)CCC/C=C\C[C@@H]1[C@@H](CC[C@@H](O)CCc2ccccc2)[C@H](O)C[C@@H]1O [Latanoprost] | – | -37.3% | -143% | 85.2% | 91.5% | 81.4% | – | – | – | – |
| C#C[C@]1(O)CC[C@H]2[C@@H]3CCC4=CC(=O)CC[C@@H]4[C@H]3CC[C@@]21CC [Levonorgestrel] | – | 7.5% | -8.6% | 97.5% | 88% | 91.5% | – | – | – | – |
